Experimental data published in patent publication US20120128705A1, “C6ORF167 PEPTIDES AND VACCINES CONTAINING THE SAME” (OncoTherapy Science, Inc., priority 2009, published 2012).
Ends that are not written are not given here.

What was measured:
Type in all cases: cell-based, human
peptide-pulsed T2 [1] = test: IFN-gamma ELISPOT assay on CTLs induced with peptide (HLA-A*0201); settings: CTLs from HLA-A*0201 positive donor, 3 rounds of stimulation, day 21; vs control wells without peptide
Source text: Monocyte-derived dendritic cells (DCs) were used as antigen-presenting cells to induce cytotoxic T lymphocyte (CTL) responses against peptides presented on human leukocyte antigen (HLA). DCs were generated in vitro as described elsewhere (Nakahara S et al., Cancer Res 2003 Jul. 15, 63(14): 4112-8). Specifically, peripheral blood mononuclear cells (PBMCs) isolated from a normal volunteer (HLA-A*0201 positive) by Ficoll-Plaque (Pharmacia) solution were separated by adherence to a plastic tissue culture dish (Becton Dickinson) so as to enrich them as the monocyte fraction. The monocyte-enriched population was cultured in the presence of 1,000 U/ml of granulocyte-macrophage colony-stimulating factor (R&D System) and 1,000 U/ml of interleukin (IL)-4 (R&D System) in AIM-V Medium (Invitrogen) containing 2% heat-inactivated autologous serum (AS). After 7 days of culture, the cytokine-induced DCs were pulsed with 20 micro-g/ml of each of the synthesized peptides in the presence of 3 micro-g/ml of beta 2-microglobulin for 3 hrs at 37 degrees C. in AIM-V Medium. The generated cells appeared to express DC-associated molecules, such as CD80, CD83, CD86 and HLA class II, on their cell surfaces (data not shown). These peptide-pulsed DCs were then inactivated by X-irradiated (20 Gy) and mixed at a 1:20 ratio with autologous CD8+ T cells, obtained by positive selection with CD8 positive Isolation Kit (Dynal). These cultures were set up in 48-well plates (Corning); each well contained 1.5×10^4 peptide-pulsed DCs, 3×10^5 CD8+ T cells and 10 ng/ml of IL-7 (R&D System) in 0.5 ml of AIM-V/2% AS medium. Three days later, these cultures were supplemented with IL-2 (CHIRON) to a final concentration of 20 IU/ml. On days 7 and 14, the T cells were further stimulated with the autologous peptide-pulsed DCs. The DCs were prepared each time by the same way described above. CTL was tested against peptide-pulsed T2 cells after the 3rd round of peptide stimulation on day 21 (Tanaka H et al., Br J Cancer 2001 Jan. 5, 84(1): 94-9; Umano Y et al., Br J Cancer 2001 Apr. 20, 84(8): 1052-7; Uchida N et al., Clin Cancer Res 2004 Dec. 15, 10(24): 8577-86; Suda T et al., Cancer Sci 2006 May, 97(5): 411-9; Watanabe T et al., Cancer Sci 2005 August, 96(8): 498-506).
(§1) To examine specific CTL activity, interferon (IFN)-gamma enzyme-linked immunospot (ELISPOT) assay and IFN-gamma enzyme-linked immunosorbent assay (ELISA) were performed. Specifically, peptide-pulsed T2 (1×10^4/well) was prepared as stimulator cells. Cultured cells in 48 wells were used as responder cells. IFN-gamma ELISPOT assay and IFN-gamma ELISA assay were performed under manufacture procedure.

peptide-pulsed T2 [2] = test: IFN-gamma ELISA assay of CTL clones (HLA-A*0201); settings: clones by limiting dilution; target cells pulsed with peptide
Experimental: The dilutions were made to have 0.3, 1, and 3 CTLs/well in 96 round-bottomed micro titer plate (Nalge Nunc International). CTLs were cultured with 1×10^4 cells/well of 2 kinds of human B-lymphoblastoid cell lines, 30 ng/ml of anti-CD3 antibody, and 125 U/ml of IL-2 in a total of 150 micro-l/well of AIM-V Medium containing 5% AS. 50 micro-1/well of IL-2 were added to the medium 10 days later so to reach a final concentration of 125 U/ml IL-2. CTL activity was tested on the 14th day, and CTL clones were expanded using the same method as described above (Uchida N et al., Clin Cancer Res 2004 Dec. 15, 10(24): 8577-86; Suda T et al., Cancer Sci 2006 May, 97(5): 411-9; Watanabe T et al., Cancer Sci 2005 August, 96(8): 498-506).
as §1

peptide-pulsed T2 [3] = test: IFN-gamma ELISA assay of CTL lines (HLA-A*0201); settings: target cells pulsed with corresponding peptide vs without peptide pulse
Experimental: CTLs were expanded in culture using the method similar to the one described by Riddell et al. (Walter E A et al., N Engl J Med 1995 Oct. 19, 333(16): 1038-44; Riddell S R et al., Nat Med 1996 February, 2(2): 216-23). A total of 5×10^4 CTLs were suspended in 25 ml of AIM-V/5% AS medium with 2 kinds of human B-lymphoblastoid cell lines, inactivated by Mitomycin C, in the presence of 40 ng/ml of anti-CD3 monoclonal antibody (Pharmingen). One day after initiating the cultures, 120 IU/ml of IL-2 were added to the cultures. The cultures were fed with fresh AIM-V/5% AS medium containing 30 IU/ml of IL-2 on days 5, 8 and 11 (Tanaka H et al., Br J Cancer 2001 Jan. 5, 84(1): 94-9; Umano Y et al., Br J Cancer 2001 Apr. 20, 84(8): 1052-7; Uchida N et al., Clin Cancer Res 2004 Dec. 15, 10(24): 8577-86; Suda T et al., Cancer Sci 2006 May, 97(5): 411-9; Watanabe T et al., Cancer Sci 2005 August, 96(8): 498-506).
as §1

## ALVRFFEAV [SEQ ID NO: 76]
peptide-pulsed T2 [1]
  Peptide specific CTL activity: IFN-gamma production by ELISPOT: potent IFN-gamma production
peptide-pulsed T2 [2]
  IFN-gamma production of CTL clones by ELISA: Potent IFN-gamma productions
peptide-pulsed T2 [3]
  IFN-gamma production of CTL lines by ELISA: potent IFN-gamma production

## FLCILAKVV [SEQ ID NO: 84]
peptide-pulsed T2 [1]
  Peptide specific CTL activity: IFN-gamma production by ELISPOT: potent IFN-gamma production
peptide-pulsed T2 [2]
  IFN-gamma production of CTL clones by ELISA: Potent IFN-gamma productions
peptide-pulsed T2 [3]
  IFN-gamma production of CTL lines by ELISA: potent IFN-gamma production

## FLLLaAVAEV (FLLLAAVAEV; not fully specified; printed as FLLLaAVAEV) [SEQ ID NO: 101]
peptide-pulsed T2 [1]
  Peptide specific CTL activity: IFN-gamma production by ELISPOT: potent IFN-gamma production
peptide-pulsed T2 [2]
  IFN-gamma production of CTL clones by ELISA: Potent IFN-gamma productions
peptide-pulsed T2 [3]
  IFN-gamma production of CTL lines by ELISA: potent IFN-gamma production

## FLLMyAQKNL (FLLMYAQKNL; not fully specified; printed as FLLMyAQKNL) [SEQ ID NO: 112]
peptide-pulsed T2 [1]
  Peptide specific CTL activity: IFN-gamma production by ELISPOT: potent IFN-gamma production
peptide-pulsed T2 [3]
  IFN-gamma production of CTL lines by ELISA: potent IFN-gamma production

## FLTDsLELEL (FLTDSLELEL; not fully specified; printed as FLTDsLELEL) [SEQ ID NO: 111]
peptide-pulsed T2 [1]
  Peptide specific CTL activity: IFN-gamma production by ELISPOT: potent IFN-gamma production
peptide-pulsed T2 [2]
  IFN-gamma production of CTL clones by ELISA: Potent IFN-gamma productions
peptide-pulsed T2 [3]
  IFN-gamma production of CTL lines by ELISA: potent IFN-gamma production

## GLQNfFSLFL (GLQNFFSLFL; not fully specified; printed as GLQNfFSLFL) [SEQ ID NO: 110]
peptide-pulsed T2 [1]
  Peptide specific CTL activity: IFN-gamma production by ELISPOT: potent IFN-gamma production
peptide-pulsed T2 [2]
  IFN-gamma production of CTL clones by ELISA: Potent IFN-gamma productions
peptide-pulsed T2 [3]
  IFN-gamma production of CTL lines by ELISA: potent IFN-gamma production

## KLTRLLFNL [SEQ ID NO: 65]
peptide-pulsed T2 [1]
  Peptide specific CTL activity: IFN-gamma production by ELISPOT: potent IFN-gamma production
peptide-pulsed T2 [2]
  IFN-gamma production of CTL clones by ELISA: Potent IFN-gamma productions
peptide-pulsed T2 [3]
  IFN-gamma production of CTL lines by ELISA: potent IFN-gamma production

## LLCDlISLSL (LLCDLISLSL; not fully specified; printed as LLCDlISLSL) [SEQ ID NO: 123]
peptide-pulsed T2 [1]
  Peptide specific CTL activity: IFN-gamma production by ELISPOT: potent IFN-gamma production
peptide-pulsed T2 [3]
  IFN-gamma production of CTL lines by ELISA: potent IFN-gamma production

## QQCVlFLHYV (QQCVLFLHYV; not fully specified; printed as QQCVlFLHYV) [SEQ ID NO: 113]
peptide-pulsed T2 [1]
  Peptide specific CTL activity: IFN-gamma production by ELISPOT: potent IFN-gamma production
peptide-pulsed T2 [2]
  IFN-gamma production of CTL clones by ELISA: Potent IFN-gamma productions
peptide-pulsed T2 [3]
  IFN-gamma production of CTL lines by ELISA: potent IFN-gamma production

## VLFLHYVKV [SEQ ID NO: 66]
peptide-pulsed T2 [1]
  Peptide specific CTL activity: IFN-gamma production by ELISPOT: potent IFN-gamma production
peptide-pulsed T2 [2]
  IFN-gamma production of CTL clones by ELISA: Potent IFN-gamma productions
peptide-pulsed T2 [3]
  IFN-gamma production of CTL lines by ELISA: potent IFN-gamma production

## WLVLeILYML (WLVLEILYML; not fully specified; printed as WLVLeILYML) [SEQ ID NO: 117]
peptide-pulsed T2 [1]
  Peptide specific CTL activity: IFN-gamma production by ELISPOT: potent IFN-gamma production
peptide-pulsed T2 [3]
  IFN-gamma production of CTL lines by ELISA: potent IFN-gamma production
